# Reference: publication PMC11971306, “Enzymatic Birch reduction via hydrogen atom transfer at [4Fe-4S]-OH2 and [8Fe-9S] clusters” (Nature Communications, 2025)
# Tests used:
# BzdNO [1] = target: T1, BzdNO (Azoarcus sp. CIB, UniProt Z9PSW1D6O9); test: X-ray crystallography, no ligand added; format: binding; conditions: weakly occupied, co-purified; partially CoA-free state
# T1 construct: BzdN + BzdO heterodimer (catalytic dimer of class I benzoyl-CoA reductase, BZD type) without BzdPQ; C-terminal Strep-tag on BzdO; anaerobic purification; about 95 kDa theoretical, 107 kDa by SEC; BzdN to residue 376, BzdO to residue 442 (domain borders); with Benzoyl-CoA reductase subunit BzdN
# T1 sequence (Z9PSW1D6O9 1-437): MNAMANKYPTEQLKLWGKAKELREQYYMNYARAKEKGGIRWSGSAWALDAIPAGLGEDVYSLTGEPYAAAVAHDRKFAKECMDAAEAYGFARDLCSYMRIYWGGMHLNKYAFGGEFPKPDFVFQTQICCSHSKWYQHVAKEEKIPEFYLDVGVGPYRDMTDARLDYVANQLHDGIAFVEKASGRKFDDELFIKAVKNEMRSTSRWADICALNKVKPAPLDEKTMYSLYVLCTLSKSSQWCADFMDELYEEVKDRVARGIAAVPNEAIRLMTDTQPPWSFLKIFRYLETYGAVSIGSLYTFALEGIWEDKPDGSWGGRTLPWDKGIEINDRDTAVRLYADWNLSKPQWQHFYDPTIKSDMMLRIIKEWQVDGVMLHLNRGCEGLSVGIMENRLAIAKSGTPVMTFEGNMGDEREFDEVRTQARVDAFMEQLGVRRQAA
# T1 sequence (Z9U3P4NCS5 1-379 partner): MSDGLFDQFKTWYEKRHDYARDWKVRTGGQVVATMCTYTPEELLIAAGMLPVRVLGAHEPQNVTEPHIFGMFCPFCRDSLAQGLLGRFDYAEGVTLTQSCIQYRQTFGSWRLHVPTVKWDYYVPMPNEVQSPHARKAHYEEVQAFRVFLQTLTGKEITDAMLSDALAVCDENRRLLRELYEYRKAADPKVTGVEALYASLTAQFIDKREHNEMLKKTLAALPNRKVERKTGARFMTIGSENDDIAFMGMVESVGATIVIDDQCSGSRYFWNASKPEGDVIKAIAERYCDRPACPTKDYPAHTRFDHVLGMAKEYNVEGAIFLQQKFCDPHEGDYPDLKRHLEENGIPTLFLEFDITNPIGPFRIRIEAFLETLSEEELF
# BzdNO [2] = target: T1, BzdNO; test: X-ray crystallography, co-crystal; format: binding; conditions: 1.4 Å; 5 mM compound, pH 7.5, anaerobic; non-covalent; active site channel of BzdO in front of [4Fe-4S]-OH2 cluster
# BzdNO [3] = target: T1, BzdNO; test: X-ray crystallography, co-crystal; also turnover in reverse reaction; format: binding; conditions: 5 mM compound, pH 7.5, anaerobic; non-covalent; same site as benzoyl-CoA; substrate of the reverse, viologen-dependent rearomatization
# BzdNO [4] = target: T1, BzdNO; test: rearomatization of dienoyl-CoA to benzoyl-CoA, UPLC; format: biochemical; conditions: artificial electron acceptor 0.5 mM; 0.2 mM dienoyl-CoA, pH 8.8, 30 °C, anaerobic
structure (smiles),measurement,setting,value
CC(C)(COP(=O)(O)OP(=O)(O)OC[C@H]1O[C@@H](n2cnc3c(N)ncnc32)[C@H](O)[C@@H]1OP(=O)(O)O)[C@@H](O)C(=O)NCCC(=O)NCCS [CoA],"X-ray crystallography, no ligand added",BzdNO [1],appears to contain besides several solvent molecules a weakly occupied CoA ligand
CC(C)(COP(=O)(O)OP(=O)(O)OC[C@H]1O[C@@H](n2cnc3c(N)ncnc32)[C@H](O)[C@@H]1OP(=O)(O)O)[C@@H](O)C(=O)NCCC(=O)NCCSC(=O)c1ccccc1 [benzoyl-CoA],"X-ray crystallography, co-crystal",BzdNO [2],"determined in a BzCoA bound (pdb 8SO2), dienoyl-CoA bound (pdb 8S1T)"
"CC(C)(COP(=O)(O)OP(=O)(O)OC[C@H]1O[C@@H](n2cnc3c(N)ncnc32)[C@H](O)[C@@H]1OP(=O)(O)O)[C@@H](O)C(=O)NCCC(=O)NCCSC(=O)C1=CCCC=C1 [dienoyl-CoA, cyclohexa-1,5-diene-1-carbonyl-CoA]","X-ray crystallography, co-crystal; also turnover in reverse reaction",BzdNO [3],BzdNO in complex with the product dienoyl-CoA reveals the identical binding mode as the substrate
C[n+]1ccc(-c2cc[n+](C)cc2)cc1 [methyl viologen],"rearomatization of dienoyl-CoA to benzoyl-CoA, UPLC",BzdNO [4],methyl viologen-dependent rearomatization of dienoyl-CoA to BzCoA
